Laboratory results reported in patent publication US20210330611A1, “THERAPY FOR NEUROLOGICAL DISEASES/DISORDERS” (priority 2020, published 2021).
Where a name gives a salt, the structure may show the parent alone. Read-outs that look alike come from different tables or passages of the source.

Key:
[1] = system: fibrin-induced microglia activation; test: Image-based assay of fibrin-induced microglia activation (HTS and dose response); type: cell-based, rat; conditions: primary microglia HTS, fibrin stimulation; for inhibition at 10 µM: Rattus norvegicus, Microglia, read-out: Fibrin % inhibition
[2] = system: LPS-induced microglia activation; test: Image-based assay of LPS-induced microglia activation (HTS and dose response); type: cell-based, rat; conditions: for inhibition at 10 µM: Rattus norvegicus, Microglia, read-out: LPS % inhibition
[3] = system: fibrin- and LPS-induced microglia activation; test: cells; type: cell-based, rat
primary rat microglia [4] = system: primary rat microglia
primary rat microglia [5] = test: Cell toxicity (dead cells, size <150 μm2) in coated fibrin (cFib) assay; conditions: primary microglia HTS;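 further: share of dead cells sized under 150 µm2 at 10 µM in fibrin-stimulated microglia HTS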
[6] = primary microglia HTS, LPS stimulation, compounds at 10 μM
[7] = quadrant by fibrin and LPS inhibition, HTS at 10 μM
[8] = fibrin assay, dead cells (size <150 μm2)
[9] = classification by fibrin and LPS inhibition, HTS at 10 μM
[10] = fibrin assay, dead cells (size <150 μm2), compounds at 10 μM
[11] = cell size >800 μm2 as marker of activation
[12] = classification by fibrin and LPS inhibition in HTS
[13] = fibrin stimulation, cell size <150 μm2 as marker of toxicity

Row | SMILES | inhibition at 10 µM ([1]; compounds at 10 μM) [%] | inhibition at 10 µM [2, 6] [%] | Quadrant (FIG. 5b) [3, 7] | LPS % cell toxicity (primary rat microglia [4]; rat) [%] | Fibrin % cell toxicity (primary rat microglia [5]; [8]) [%] | Quadrant (FIG. 5b) [3, 9] | Fibrin % cell toxicity (primary rat microglia [5]; [10]) [%] | also measured
1 | C[C@]12C=CC(=O)C=C1CC[C@@H]1[C@@H]2[C@@H](O)C[C@@]2(C)[C@H]1CC[C@]2(O)C(=O)COC(=O)CCC(=O)O [Prednisolone Hemisuccinate] | 106 | 96 | Q2 | 3 | 3 | – | – | –
2 | CCN[C@@H](C)Cc1cccc(C(F)(F)F)c1 [Dexfenfluramine] | -15 | 5 | – | 0 | – | Q4 | 1 | –
3 | C=CC1=C(C)c2cc3[nH]c(cc4nc(cc5[nH]c(cc1n2)c(C)c5CCC(=O)O)C(CCC(=O)O)=C4C)c(C)c3C=C [Protoporphyrin Ix] | – | – | – | 0 | – | – | – | inhibition at 10 µM [1, 11]: -70%; inhibition at 10 µM ([2]; 48 h): 2%; Quadrant (FIG. 5b) [3, 12]: Q4; Fibrin % cell toxicity (primary rat microglia [5]; [13]): 1%
4 | CC(CCc1ccc(O)cc1)NCCc1ccc(O)c(O)c1 (centres unmarked) [Dobutamine] | – | – | – | 0 | – | Q4 | 1 | Fibrin % inhibition ([1]; compounds at 10 μM, 10 µM): −29%; LPS % inhibition ([2]; primary microglia HTS, LPS stimulation, compounds at 10 μM, 10 µM): −7%
5 | C[C@]12CCC(=O)C=C1[C@@H]1C[C@@H]1[C@H]1[C@@H]3[C@@H]4C[C@@H]4[C@@]4(CCC(=O)O4)[C@@]3(C)CC[C@@H]12 [Drospirenone] | 11 | 6 | – | 1 | – | Q4 | 1 | –
6 | CCc1cn([C@H]2C[C@H](O)[C@@H](CO)O2)c(=O)[nH]c1=O [Edoxudine] | -10 | 1 | – | 0 | – | Q4 | 0 | –
7 | CC(=O)NC(CCC(N)=O)C(=O)O (centres unmarked) [Aceglutamide] | 36 | 20 | Q4 | 0 | 1 | – | – | –
8 | CCOc1cc(C=O)ccc1O [Ethyl Vanillin] | -15 | 18 | – | 0 | – | Q4 | 0 | –
9 | NCc1cccnc1 [Picolamine] | – | – | – | 0 | – | – | – | inhibition at 10 µM [1, 11]: -1%; inhibition at 10 µM ([2]; 48 h): 4%; Quadrant (FIG. 5b) [3, 12]: Q4; Fibrin % cell toxicity (primary rat microglia [5]; [13]): 1%
10 | CN1CCN(c2c(F)cc3c(=O)c(C(=O)O)cn4c3c2SCC4)CC1 [Rufloxacin Hydrochloride] | – | – | – | 0 | – | – | – | inhibition at 10 µM [1, 11]: -3%; inhibition at 10 µM ([2]; 48 h): 21%; Quadrant (FIG. 5b) [3, 12]: Q4; Fibrin % cell toxicity (primary rat microglia [5]; [13]): 1%
11 | CC(=O)N[C@@H](CC(C)C)C(=O)O [Acetyl-l-leucine] | -10 | 45 | Q4 | 3 | 5 | – | – | –
12 | NS(=O)(=O)c1cc2c(cc1C(F)(F)F)NC(Cc1ccccc1)NS2(=O)=O (centres unmarked) [Bendrofumethiazide, Bendroflumethiazide] | – | – | Q4 | – | 1 | – | – | Fibrin % inhibition ([1]; compounds at 10 μM): −15%; LPS % inhibition [2, 6]: 12%; LPS % cell toxicity (primary rat microglia [4]): 1%
13 | CC(=O)Oc1c(C)cccc1C(=O)O [Cresopyrine, Cresopirine] | – | – | – | – | – | Q4 | 1 | Fibrin % inhibition ([1]; compounds at 10 μM): 13%; LPS % inhibition [2, 6]: 15%; LPS % cell toxicity (primary rat microglia [4]): 1%
14 | CC1(C)S[C@@H]2[C@H](NC(=O)[C@H](N)c3ccccc3)C(=O)N2[C@H]1C(=O)O [Ampicillin] | 1 | 15 | Q4 | 0 | 1 | – | – | –
15 | COC(=O)N[C@H](C(=O)N[C@@H](Cc1ccccc1)[C@@H](O)CN(Cc1ccc(-c2ccccn2)cc1)NC(=O)[C@@H](NC(=O)OC)C(C)(C)C)C(C)(C)C [Atazanavir] | -17 | 13 | Q4 | 1 | 0 | – | – | –
16 | Nc1ccncc1 [Dalfampridine] | 8 | 2 | – | 0 | – | Q4 | 2 | –
